Measurements taken from US20240108641A1, “COMPOSITIONS FOR ORAL ADMINISTRATION OF ZOLEDRONIC ACID OR RELATED COMPOUNDS FOR TREATING DISEASE” (ANTECIP BIOVENTURES II LLC, priority 2012, published 2024).

Legend:
Type in all cases: in vivo, human
[1] = phase 1 clinical trial, bioavailability and pharmacokinetics of the oral dosage form versus IV Zometa
Procedure: Dose amounts are based upon the weights of the molar equivalent amounts of the diacid form of zoledronic acid (e.g., the 50 mg oral dose contains about 71 mg of the disodium zoledronate tetrahydrate form). The dosage form had the composition shown in Table 3, and was coated with Opadry White, which as 3-5 wt % of the coated tablet. These dosage forms were free of bioavailability enhancing agents. For convenience, the dosage form described in Table 3 will be described in this Example as “the oral dosage form.”
Each subject received 2 of the following 4 treatments: one unit of the oral dosage form for a 50 mg dose (“the 50 mg oral dose”), two units of the oral dosage form taken together for a 100 mg dose (“the 100 mg oral dose”), or three units of the oral dosage form taken together for a 150 mg dose (“the 150 mg oral dose”), or a 1 mg IV dose of zoledronic acid (Zometa®). Each treatment was separated by a wash-out period of approximately 14 days. Blood samples were collected for 72 hours post-dose to characterize zoledronic acid pharmacokinetics. Blood samples were collected pre-dose and 7 and 14-15 days post-dose to measure the effects of the oral disodium tetrahydrate form of zoledronic acid and IV zoledronic acid on biomarkers of bone resorption.
All study medications which were orally administered were given with approximately 240 mL of water. Subjects remained upright for the first hour following study medication administration. Zoledronic acid IV infusion was at least 15 minutes in duration. All study medication was administered under fasting conditions.
Each treatment was separated by a washout period of approximately 14 days. Blood samples were collected for 72 hours post-dose to characterize zoledronic acid pharmacokinetics. Blood samples were collected pre-dose and 7 and 14-15 days post-dose to measure the effects of the oral dosage form and IV zoledronic acid on serum CTx.

[2] = test system: knee pain (knee osteoarthritis and knee bone marrow lesions); experiment: clinical study in knee osteoarthritis with bone marrow lesions, VAS pain; details: 5 mg intravenous; for average VAS scores decreased from baseline: 3 months; for average VAS scores reduced as compared to placebo: three months
Description: (§1) Some embodiments related to joint pain, bone marrow lesions, and osteoarthritis were conceived as a result of analyzing data from a clinical study. Some of the results of this study were reported by Laslett et al. in Ann Rheum Dis 2012; 71:1322-1328. Some of the description and data reported below was not published prior to filing the present application. Fifty-two (52) patients with clinical knee osteoarthritis and knee bone marrow lesions (BML) were randomized to receive either intravenous zoledronic acid (5 mg) or placebo in a double blind fashion. All patients had to have at least one bone marrow lesion (BML) in the affected knee on magnetic resonance imaging (MRI). All patients had x-ray of the knee for determination of joint space narrowing (JSN), which was graded according to the Osteoarthritis Research Society International (OARSI) atlas. Patients had either no joint space narrowing (OARSI Grade 0), or greater degrees of joint space narrowing (OARSI Grade 1 and Grade 2). Twenty six patients were treated with zoledronic acid (8, 6, and 12 with OARSI Grades 0, 1, and 2, respectively). Twenty six patients received placebo (8, 8, and 10 with OARSI Grades 0, 1 and 2, respectively).
Pain intensity was assessed at baseline and at three months, using a 100 mm visual analog scale (VAS), with zero representing no pain and 100 representing extreme pain. The change in pain intensity from baseline to 3 months was calculated.

[3] = test system: knee bone marrow lesions (BML); experiment: clinical study in knee osteoarthritis with bone marrow lesions, BML size on MRI; details: 5 mg intravenous; for average BML area decreased as compared to placebo: 6 months; for Change in BML Size / Change in BML Size, Difference from Placebo: baseline to 6 months
Description: as §1
BMLs were evaluated using proton density-weighted fat saturation MR images. BMLs were scored using Osiris software (University of Geneva, Geneva, Switzerland). The maximum size was measured in mm^2 using software cursors applied to the greatest area of each lesion. The lesion with the highest score was used if more than one was present at the same site. Each patient was given a BML score (mm^2) at each of the four sites (medial tibial, medial femoral, lateral tibial, and lateral femoral sites) and these were summed to create a total BML score (mm^2). The change in the total area of BMLs from baseline to 6 months was calculated.

In the case of `O=P(O)(O)C(O)(Cn1ccnc1)P(=O)(O)O` [zoledronic acid], the “Sustained Plasma Factor” value ([1]; 1 mg IV) is reported as 4.6, the “Sustained Plasma Factor” value ([1]; 50 mg oral dose) is reported as 13.5 and the “Sustained Plasma Factor Ratio (oral/IV)” value ([1]; 50 mg oral dose versus 1 mg IV) is reported as 2.9. For the same compound, the “Sustained Plasma Factor” value ([1]; 100 mg oral dose) was 11.7, the “Sustained Plasma Factor Ratio (oral/IV)” value ([1]; 100 mg oral dose versus 1 mg IV) was 2.5 and the “Sustained Plasma Factor” value ([1]; 150 mg oral dose) was 15.1. The “Sustained Plasma Factor Ratio (oral/IV)” value ([1]; 150 mg oral dose versus 1 mg IV) was 3.3, the “average VAS scores decreased from baseline” value (shortened to “average VAS scores decreased”) ([2]; OARSI Grade 0) was “approximately 25 mm” and the “average VAS scores decreased” value ([2]; OARSI Grade 1) was about 21 mm. The “average VAS scores decreased” value ([2]; OARSI Grade 2) was 9 mm, the “Pain Reduction Compared to Placebo at Three Months, VAS Change” value ([2]; All patients) was −4.8 mm and the “Change in VAS Pain Scores at Three Months” value ([2]; Baseline VAS < 50 mm) was −7.3 mm. The “Change in VAS Pain Scores at Three Months, Difference from Placebo” value ([2]; Baseline VAS < 50 mm) was −0.6 mm, the “Change in VAS Pain Scores at Three Months” value ([2]; Baseline VAS ≥ 50 mm) was −26.2 mm and the “Change in VAS Pain Scores at Three Months, Difference from Placebo” value ([2]; Baseline VAS ≥ 50 mm) was −9.0 mm. The “Pain Reduction Compared to Placebo at Three Months, VAS Change” value ([2]; Baseline VAS ≥ 50 mm + OARSI Grade 0) was −19.4 mm, the “Change in VAS Pain Scores at Three Months” value ([2]; OARSI Grade 0) was −24.6 mm and the “Change in VAS Pain Scores at Three Months, Difference from Placebo” value ([2]; OARSI Grade 0) was −15.0 mm. The “Change in VAS Pain Scores at Three Months” value ([2]; OARSI Grades 1-2) was −13.2 mm, the “Change in VAS Pain Scores at Three Months, Difference from Placebo” value ([2]; OARSI Grades 1-2) was −0.28 mm and the “average VAS scores reduced as compared to placebo” value (from here on “average VAS scores reduced”) ([2]; OARSI Grade 0) was 15 mm. The “average VAS scores reduced” value ([2]; OARSI Grades 1-2) was 0.28, the “average VAS scores reduced” value ([2]; baseline VAS 50 mm) was 9 mm and the “average VAS scores reduced” value ([2]; baseline VAS<50 mm) was 0.6. For the same compound, the “average BML area decreased as compared to placebo” value ([3]; OARSI Grade 0) was “approximately 190 mm^2”, the “average BML area decreased as compared to placebo” value ([3]; OARSI Grades 1-2) was “approximately 33 mm^2” and the “Change in BML Size” value ([3]; OARSI Grade 0) was −244 mm^2. The “Change in BML Size, Difference from Placebo” value ([3]; OARSI Grade 0) was −190 mm^2, the “Change in BML Size” value ([3]; OARSI Grades 1-2) was −117 mm^2 and the “Change in BML Size, Difference from Placebo” value ([3]; OARSI Grades 1-2) was −33 mm^2.
